In US20230159620A1, “COMPOSITIONS AND METHODS OF TREATMENT FOR VASCULAR DISEASES AND THROMBOSIS” (Washington University, priority 2021, published 2023):

Experiments:
AKT [1] = experiment: AKT signaling immunoblot, hCASMCs; assay type: cell-based, human; conditions: relative to BSA controls
Protocol: Cellular reagents were purchased from various commercial vendors. Primary human umbilical vein endothelial cells (HUVECs) were obtained from Cell Applications Inc. and cultured according to the manufacture's recommendations. Primary human coronary artery smooth muscle cells were obtained from Invitrogen and were cultured according to the manufacture's recommendations. 293T cells were obtained from ATCC and were cultured according to the manufacture's recommendations. Mouse primary smooth muscle cells were obtained and cultured as described previously. Predesigned Silencer Select siRNA constructs targeting Pearl 1 and negative control siRNA were obtained from ThermoFisher. Transfections were performed using RNAiMAX or Lipofectamine 3000 transfection reagents according to the manufacturer's protocols. Cells were used for signaling assays 48 hours after transfection; efficient Pearl 1 knockdown or Pearl 1 overexpression was confirmed by immunoblot assays.
Prior to performing signaling assays, cells were trypsinized, centrifuged, suspended in basal media, and counted using an automated hemocytometer. Cells were further diluted in basal media to an assay-dependent concentration. […] Protein content was determined using a bicinchoninic acid assay with BSA standards (#23225, Pierce BCA Protein Assay Kit). […]

[2] = tested on: integrin signaling kinases; experiment: Integrin signaling western blot, VSMCs; assay type: cell-based, mouse; conditions: VSMCs adherent to coated wells, relative to inert protein control
Protocol: Cells were resuspended in serum-free media (SFM) and incubated with gentle agitation to prevent cell attachment and reduce basal signaling. […] Cells were briefly centrifuged to the bottom of the wells and incubated for 8 min (for VSMCs) or 15 min (for THP-1 cells) before lysis with cell lysis buffer (#9803, Cell Signaling Technologies) containing a cocktail of protease and phosphatase inhibitors. Western blots were performed by standard techniques, as briefly follows. Protein content was determined using a bicinchoninic acid assay with BSA standards (#23225, Pierce™ BCA Protein Assay Kit). Cell lysates were then reduced with DTT in lithium dodecyl sulfate sample buffer (#NP0007, Invitrogen). Equal protein amounts were added to polyacrylamide gels (#4561086, BioRad) and electrophoresed prior to transferring to a nitrocellulose or polyvinylidene fluoride membrane (#1620260, BioRad). Membranes were blocked in 5% BSA/Tris-Buffered Saline with tween 20 for 30 min. The indicated primary antibodies were incubated with the pre-blocked membranes for overnight at 4° C. Membranes were washed with Tris-Buffered Saline with tween 20, probed with fluorescent secondary antibodies, and imaged. β-actin or β-tubulin served as a loading control.

FGF receptors = experiment: Bulk RNA sequencing of VSMCs, Fgfr transcripts; assay type: cell-based, mouse; conditions: RNAseq, normalized to BSA
Protocol: Plates were UV sterilized before adding cells. Primary VSMCs were collected, resuspended in DMEM/F12 media containing 10% FBS, plated on precoated, blocked wells, and incubated for 8 hr to ensure complete cell adhesion. Media was replaced with fresh DMEM/F12 containing 1% FBS and incubated for 12 hr before collection. RNA was collected using RNeasy® Mini Kit (#74106, Qiagen). Atherosclerotic aortic arches (including the aortic root, arch, and the proximal regions of its branching vessels) from mice were used as the source of RNA for the later RNAseq experiment. […]
Samples were prepared according to the library kit manufacturer's protocol, indexed, pooled, and sequenced on an Illumina HiSeq. Basecalls and demultiplexing were performed with Illumina's bcl2fastq software and a custom python demultiplexing program with a maximum of one mismatch in the indexing read. RNA-seq reads were then aligned to the Ensembl release 76 primary assembly with STAR version 2.5.1a. Gene counts were derived from the number of uniquely aligned unambiguous reads by Subread:featureCount version 1.4.6-p5 2). […] Sequencing performance was assessed for the total number of aligned reads, the total number of uniquely aligned reads, and the features detected. The ribosomal fraction, known junction saturation, and read distribution over known gene models were quantified with RSeQC version 2.6.2. […]

AKT [3] = conditions: BSA, N-terminal, C-terminal and full-length SVEP1

## SVEP1: recombinant murine SVEP1 extracellular matrix protein with Myc and poly-histidine tag, expressed in 293F cells
AKT [1]
  AKT signaling: activated
[2]
  phosphorylation of FAK, Paxillin, Src, ERK and p38: increased phosphorylation
FGF receptors
  expression of FGF receptors: increases expression of FGF receptors
AKT [3]
  activation of AKT signaling (phospho-AKT): necessary to activate AKT signaling
